Laboratory results from paper PMC12385050, “Novel Neuroactive Steroid Analogs and Voltage-Dependent Blockers of CaV3.2 Currents, B372 and YX23, Are Effective Anti-Nociceptives with Diminished Sedative Properties in Intact Female Mice” (Biomolecules, 2025).

What was measured:
[1] = molecular target: T1, CaV3.2 (Homo sapiens, UniProt O95180); test: whole-cell patch clamp, percent inhibition of peak current at […]; assay type: cell-based
T1 construct: gene CACNA1H; human CaV3.2 channels stably expressed in HEK-293 cells

[2] = molecular target: T1, CaV3.2; test: whole-cell patch clamp, concentration-response of peak T-current; assay type: cell-based

T1 sequence (O95180 whole entry): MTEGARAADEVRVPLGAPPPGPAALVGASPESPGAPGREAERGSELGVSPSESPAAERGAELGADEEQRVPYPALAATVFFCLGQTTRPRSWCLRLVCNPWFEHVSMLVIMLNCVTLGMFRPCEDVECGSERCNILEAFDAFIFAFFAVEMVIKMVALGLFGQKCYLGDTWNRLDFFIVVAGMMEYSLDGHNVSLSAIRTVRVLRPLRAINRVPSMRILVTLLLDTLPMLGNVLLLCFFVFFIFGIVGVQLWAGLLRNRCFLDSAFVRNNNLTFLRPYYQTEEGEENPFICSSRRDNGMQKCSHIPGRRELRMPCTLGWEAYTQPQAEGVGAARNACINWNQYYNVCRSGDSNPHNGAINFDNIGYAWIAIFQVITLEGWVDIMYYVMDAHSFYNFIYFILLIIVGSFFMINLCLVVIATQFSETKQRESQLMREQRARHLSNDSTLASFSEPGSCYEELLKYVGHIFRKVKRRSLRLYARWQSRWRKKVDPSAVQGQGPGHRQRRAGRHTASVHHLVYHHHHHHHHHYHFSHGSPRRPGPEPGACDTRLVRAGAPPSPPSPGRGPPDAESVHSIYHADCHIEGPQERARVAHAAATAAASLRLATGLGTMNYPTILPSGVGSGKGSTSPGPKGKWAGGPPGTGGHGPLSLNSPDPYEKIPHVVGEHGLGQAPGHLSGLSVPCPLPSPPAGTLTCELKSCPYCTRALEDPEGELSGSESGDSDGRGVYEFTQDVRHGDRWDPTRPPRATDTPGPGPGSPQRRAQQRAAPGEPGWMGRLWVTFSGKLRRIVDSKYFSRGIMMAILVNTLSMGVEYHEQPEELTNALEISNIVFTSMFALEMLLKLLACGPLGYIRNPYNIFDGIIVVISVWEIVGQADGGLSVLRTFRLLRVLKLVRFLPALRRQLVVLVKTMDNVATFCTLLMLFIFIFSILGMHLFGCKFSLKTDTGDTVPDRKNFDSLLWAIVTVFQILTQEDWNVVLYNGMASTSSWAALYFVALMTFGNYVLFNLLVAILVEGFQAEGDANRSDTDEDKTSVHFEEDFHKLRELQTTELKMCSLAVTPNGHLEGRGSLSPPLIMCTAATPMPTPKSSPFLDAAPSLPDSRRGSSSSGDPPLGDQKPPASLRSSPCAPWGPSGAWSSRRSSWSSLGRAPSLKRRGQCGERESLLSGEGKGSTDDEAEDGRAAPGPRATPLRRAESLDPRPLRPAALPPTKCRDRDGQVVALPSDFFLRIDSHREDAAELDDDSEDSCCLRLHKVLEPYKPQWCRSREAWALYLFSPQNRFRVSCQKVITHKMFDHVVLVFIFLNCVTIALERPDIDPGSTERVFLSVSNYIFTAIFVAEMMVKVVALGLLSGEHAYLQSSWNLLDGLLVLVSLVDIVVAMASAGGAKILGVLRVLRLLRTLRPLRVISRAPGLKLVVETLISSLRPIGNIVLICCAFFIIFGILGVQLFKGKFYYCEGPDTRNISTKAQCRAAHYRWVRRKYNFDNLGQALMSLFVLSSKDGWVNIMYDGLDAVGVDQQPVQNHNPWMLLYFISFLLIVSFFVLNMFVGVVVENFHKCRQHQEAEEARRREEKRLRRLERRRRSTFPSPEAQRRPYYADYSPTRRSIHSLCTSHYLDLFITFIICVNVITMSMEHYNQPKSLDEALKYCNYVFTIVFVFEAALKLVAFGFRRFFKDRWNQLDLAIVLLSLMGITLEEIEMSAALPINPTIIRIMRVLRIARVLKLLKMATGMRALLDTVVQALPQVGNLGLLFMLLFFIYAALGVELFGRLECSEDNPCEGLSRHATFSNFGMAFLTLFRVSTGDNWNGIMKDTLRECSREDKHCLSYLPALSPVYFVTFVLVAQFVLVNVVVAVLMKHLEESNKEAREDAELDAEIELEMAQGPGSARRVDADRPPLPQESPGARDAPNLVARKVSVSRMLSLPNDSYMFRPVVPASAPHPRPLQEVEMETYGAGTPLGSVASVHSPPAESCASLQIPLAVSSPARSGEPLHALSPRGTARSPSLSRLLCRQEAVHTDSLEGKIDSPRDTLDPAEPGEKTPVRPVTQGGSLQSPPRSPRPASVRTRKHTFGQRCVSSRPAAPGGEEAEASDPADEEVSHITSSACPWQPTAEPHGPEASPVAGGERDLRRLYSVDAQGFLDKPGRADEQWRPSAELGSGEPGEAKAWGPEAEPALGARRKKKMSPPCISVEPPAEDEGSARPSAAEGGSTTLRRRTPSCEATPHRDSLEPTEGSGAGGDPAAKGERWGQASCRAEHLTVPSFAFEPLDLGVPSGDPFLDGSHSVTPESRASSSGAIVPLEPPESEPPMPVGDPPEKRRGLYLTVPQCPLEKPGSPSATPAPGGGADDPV

Compound	inhibition at 10 µM [1] [%]	IC50 [2] [µM]
C[C@]12CC[C@H](O)C[C@H]1CC[C@@H]1[C@@H]2CC[C@]2(C)[C@@H](C#N)CC[C@@H]12 [3β-OH, (3β,5β,17β)-3-hydroxyandrostane-17-carbonitrile]	48.2 ± 4.2	
C[C@]12CC[C@H]3[C@@H](CC[C@H]4C[C@@H](C#N)CC[C@@H]43)[C@@H]1CC[C@@H]2O [ECN, (3β,5α,17β)-17-hydroxyestrane-3-carbonitrile]	47.4 ± 5.2	
C[C@]12CC[C@H](O)C[C@@H]1CC[C@@H]1[C@@H]2CC[C@]2(C)[C@@H](C#N)CC[C@@H]12 [compound 6, (3β,5α,17β)-3-Hydroxyandrostan-17-carbonitrile]		3.8
CO[C@H]1CC[C@H]2[C@@H](CC[C@@H]3[C@@H]2CC[C@]2(C)[C@@H](O)CC[C@@H]32)C1 [compound 6, (3β,5α,17β)-3-Methoxyestran-17-ol]		2.4
